Like-named read-outs stand apart in the source and are kept apart here.
Test system: PKMYT1 (CDK1 pThr14) in FUOV1 cells
Test: PKMYT1 cell-based activity assay, CDK1 pThr14 AlphaLISA in FUOV1 cells
Conditions: read-out: FUOV-1 CDK1 pThr14 IC50
Outline: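 IC50 was derived from AlphaLISA signal (excitation 680 nm, emission 615 nm) for phospho-Thr14 CDK1 in lysates. The detection antibodies were rabbit anti-pThr14 and mouse anti-total CDK1, each at 5 nM. FUOV1 ovarian cells were exposed to compound for 2 hours before lysis.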

SMILES | IC50 (2 h, 2 h compound incubation) [nM] | IC50 (2 h, 2 hours with compound) [nM] | further results
Cc1ccc2[nH]ncc2c1-c1nc(-c2cc(F)cnc2NC(C)C)nc(C(N)=O)c1N [Compound 679] | 13 | – | –
Cc1ccc(O)c(C)c1-c1nc(-c2cc(F)cnc2NCC(F)F)nc(C(N)=O)c1N [Compound 700, 5-amino-2-(2-((2,2-difluoroethyl)amino)-5-fluoropyridin-3-yl)-6-(3-hydroxy-2,6-dimethylphenyl)pyrimidine-4-carboxamide] | 9 | – | –
Cc1ccc2[nH]ncc2c1-c1nc(-c2cc(F)cnc2N[C@@H](C)C(F)(F)F)nc(C(N)=O)c1N [Compound 888] | – | 111 | –
NC(=O)c1nc(-c2cccnc2NC2CC2)nc(-c2c(Cl)cc(F)c3[nH]ncc23)c1N [Compound 967] | – | 212 | –
Cc1csc(Nc2cc(F)ccc2-c2nc(C(N)=O)c(N)c(-c3c(C)ccc4[nH]ncc34)n2)n1 [Compound 588] | 45 | – | –
Cc1ccc2[nH]ncc2c1-c1nc(-c2cnncc2NCC(F)(F)F)nc(C(N)=O)c1N [Compound 669] | > 10000 | – | –
Cc1ccc(F)c(Nc2ncccc2-c2cc(C(N)=O)c(N)c(-c3c(C)ccc4[nH]ncc34)n2)n1 [Compound 827, 5-amino-2′-((3-fluoro-6-methylpyridin-2-yl)amino)-6-(5-methyl-1H-indazol-4-yl)-[2,3′-bipyridine]-4-carboxamide] | – | 12 | –
Cc1ccc2[nH]ncc2c1-c1nc(-c2cccnc2Nc2cccnc2)nc(C(N)=O)c1N [Compound 595] | – | – | IC50 (2 h compound incubation): 1540 nM
Cc1ccc2[nH]ncc2c1-c1nc(-c2cc(F)c(F)cc2NCC(N)CO)nc(C(N)=O)c1N (stereo not shown) [Compound 501] | 146 | – | –
Cc1ccc2[nH]ncc2c1-c1nc(-c2cccnc2NC(C)C)cc(C(N)=O)c1N [Compound 866, 5-amino-2′-(isopropylamino)-6-(5-methyl-1H-indazol-4-yl)-[2,3′-bipyridine]-4-carboxamide] | – | 62 | –
Cc1ccc2[nH]ncc2c1-c1nc(-c2cc(F)cnc2NCc2cnn(C)c2)nc(C(N)=O)c1N [Compound 895] | – | 876 | –
Cc1ccc2[nH]ncc2c1-c1cc(-c2ccnc(OCC(F)(F)F)n2)nc(C(N)=O)c1N [Compound 165] | – | – | IC50 (2 h incubation): > 10000 nM
COc1ncc(F)c(Nc2cc(F)ccc2-c2nc(C(N)=O)c(N)c(-c3c(C)ccc4[nH]ncc34)n2)n1 [Compound 627] | 12 | – | –
Cc1ccc2[nH]ncc2c1-c1cc2c(oc3ccc(NC4CCOCC4)nc32)c(C(N)=O)c1N (atropisomer, axis not shown) [Compound 762] | – | – | IC50 (2 h compound incubation): 24 nM
Cc1cc(F)c2[nH]ncc2c1-c1nc(-c2cc(F)cnc2NCC(C)(C)C#N)nc(C(N)=O)c1N [Compound 874] | – | 121 | –
Cc1ccc2[nH]ncc2c1-c1nc(-c2cccnc2NCC2COC2)nc(C(N)=O)c1N [Compound 676] | > 10000 | – | –
Cc1ccc2[nH]ncc2c1-c1nc(-c2cccnc2N[C@@H]2CC[C@H](O)C2)nc(C(N)=O)c1N [Compound 783] | 35 | – | –
Cc1ccc2[nH]ncc2c1-c1nc(-c2cccnc2Nc2nc(F)ccc2F)nc(C(N)=O)c1O [Compound 806, 2-(2-((3,6-difluoropyridin-2-yl)amino)pyridin-3-yl)-5-hydroxy-6-(5-methyl-1H-indazol-4-yl)pyrimidine-4-carboxamide] | – | > 10000 | –
Cc1ccc2[nH]ncc2c1-c1nc(-c2cc(F)cnc2NC2CCOCC2)nc(C(N)=O)c1N [Compound 686] | 10 | – | –
COc1cc(-c2nc(C(N)=O)c(N)c(-c3c(C)ccc4[nH]ncc34)n2)ccn1 [Compound 135] | – | – | IC50 (2 h, 2 h incubation): 1150 nM
Cc1c(F)cc2[nH]ncc2c1-c1nc(-c2cc(F)cnc2NCC(C)(C)C#N)nc(C(N)=O)c1N [Compound 859] | – | 41 | –
Cc1c(F)cc2[nH]ncc2c1-c1nc(-c2ccc(C(F)F)nc2Nc2ncccc2F)nc(C(N)=O)c1N [Compound 855] | – | 13 | –
Cn1cc(-c2nc(C(N)=O)c(N)c(-c3c(Cl)ccc4[nH]ncc34)n2)c(NC2CCOCC2)n1 [Compound 915] | – | 164 | –
Cc1ccc2[nH]ncc2c1-c1nc(-c2cccnc2NC2(C)CCOCC2)nc(C(N)=O)c1N [Compound 544] | 6 | – | –
Cc1ccc2[nH]ncc2c1-c1nc(-c2cc(F)cnc2OC2CC(C)(O)C2)nc(C(N)=O)c1N (stereo not shown) [Compound 841] | – | 1120 | –
Cc1ccc2[nH]ncc2c1-c1nc(-c2cc(F)cnc2N[C@H]2C[C@H](O)C2)nc(C(N)=O)c1N [Compound 690] | 16 | – | –
Cc1ccc2[nH]ncc2c1-c1nc(-c2cccnc2NC2CCOC(C)(C)C2)nc(C(N)=O)c1N (stereo not shown) [Compound 592] | 603 | – | –
Cc1ccc2[nH]ncc2c1-c1nc(-c2ccc(F)nc2Nc2nc(F)ccc2F)nc(C(N)=O)c1N [Compound 921] | – | 4 | –
Cc1ccc2[nH]ncc2c1-c1nc(-c2cccnc2N[C@H]2CC[C@@H](O)C2)nc(C(N)=O)c1N [Compound 784] | 44 | – | –

Further lines, with some results ahead:

IC50 (2 h, 2 h compound incubation) [nM] | IC50 (2 h, 2 hours with compound) [nM] | SMILES | further results
2 | – | Cc1ccc2[nH]ncc2c1-c1nc(-c2cccnc2Nc2nc(F)ccc2F)nc(C(N)=O)c1N [Compound 660] | –
21 | – | Cc1ccc2[nH]ncc2c1-c1nc(-c2ccc(F)cc2Nc2nccc(C#N)n2)nc(C(N)=O)c1N [Compound 532] | –
– | 51 | Cc1ccc2[nH]ncc2c1-c1nc(-c2cc(Cl)ncc2Nc2ncccn2)nc(C(N)=O)c1N [Compound 955, 5-amino-2-(2-chloro-5-(pyrimidin-2-ylamino)pyridin-4-yl)-6-(5-methyl-1H-indazol-4-yl)pyrimidine-4-carboxamide] | –
– | 186 | [2H]C([2H])([2H])c1ccc2[nH]ncc2c1-c1nc(-c2ccc(C3CC3)nc2Nc2ncccn2)nc(C(N)=O)c1N [Compound 974, 5-amino-2-(6-cyclopropyl-2-(pyrimidin-2-ylamino)pyridin-3-yl)-6-(5-(methyl-d3)-1H-indazol-4-yl)pyrimidine-4-carboxamide] | –
40 | – | Cc1ccc2[nH]ncc2c1-c1nc(-c2ccc(F)cc2Nc2nccs2)nc(C(N)=O)c1N [Compound 581] | –
– | 129 | Cc1ccc2[nH]ncc2c1-c1nc(-c2cn(C)nc2Nc2ncccc2F)nc(C(N)=O)c1N [Compound 925] | –
4580 | – | Cc1ccc2[nH]ncc2c1-c1nc(-c2ccc(F)cc2Nc2nccc(C(C)(C)C)n2)nc(C(N)=O)c1N [Compound 576] | –
38 | – | Cc1cncc(Nc2cc(F)ccc2-c2nc(C(N)=O)c(N)c(-c3c(C)ccc4[nH]ncc34)n2)c1 [Compound 666] | –
4 | – | Cc1ccc2[nH]ncc2c1-c1nc(-c2ccc(F)cc2Nc2ncncc2C#N)nc(C(N)=O)c1N [Compound 655] | –
13 | – | Cc1ccc2[nH]ncc2c1-c1nc(-c2ccc(F)cc2Nc2nncs2)nc(C(N)=O)c1N [Compound 579] | –
569 | – | Cc1cccc(Nc2ncccc2-c2nc(C(N)=O)c(N)c(-c3c(C)ccc4[nH]ncc34)n2)c1 [Compound 634] | –
27 | – | Cc1ccc2[nH]ncc2c1-c1nc(-c2ccc(F)cc2Nc2cccnc2C#N)nc(C(N)=O)c1N [Compound 674] | –
– | 44 | NC(=O)c1nc(-c2ccccc2Nc2ncccn2)nc(-c2c(Cl)ccc3[nH]ncc23)c1N [Compound 948] | –
91 | – | Cc1ccc(Nc2ncccn2)c(-c2nc(C(N)=O)c(N)c(-c3c(C)ccc4[nH]ncc34)n2)c1 [Compound 646] | –
5 | – | Cc1ccc(Cl)nc1Nc1ncccc1-c1nc(C(N)=O)c(N)c(-c2c(C)ccc3[nH]ncc23)n1 [Compound 742] | –
17 | – | Cc1ccc2[nH]ncc2c1-c1nc(-c2ccc(Cl)nc2Nc2nccnc2Cl)nc(C(N)=O)c1N [Compound 770] | –

IC50 (2 h, 2 h compound incubation) [nM] | IC50 (2 h, 2 hours with compound) [nM] | SMILES | further results
18 | – | Cc1ccc2[nH]ncc2c1-c1nc(-c2cccnc2NCC(F)(F)F)nc(C(N)=O)c1N [Compound 518, 5-amino-6-(5-methyl-1H-indazol-4-yl)-2-(2-((2,2,2-trifluoroethyl)amino)pyridin-3-yl)pyrimidine-4-carboxamide] | –
20 | – | Cc1ccc2[nH]ncc2c1-c1nc(-c2ccc(F)cc2Nc2nnccc2C#N)nc(C(N)=O)c1N [Compound 539] | –
– | 68 | NC(=O)c1nc(-c2ccc(F)nc2Nc2ncccn2)nc(-c2c(Cl)ccc3[nH]ncc23)c1N [Compound 923] | –
– | 8 | NC(=O)c1nc(-c2ccc(Cl)nc2Nc2ncccc2F)nc(-c2c(F)ccc3[nH]ncc23)c1N [Compound 965] | –
25 | – | Cc1ccc2[nH]ncc2c1-c1nc(-c2ccc(Cl)nc2Nc2nccnc2C)nc(C(N)=O)c1N [Compound 780] | –
163 | – | Cc1ccc2[nH]ncc2c1-c1nc(-c2cc(F)ccc2Nc2ncc(F)cn2)nc(C(N)=O)c1N [Compound 492] | –
– | 1 | Cc1ccc(-c2nc(C(N)=O)c(N)c(-c3c(C)ccc4[nH]ncc34)n2)c(Nc2ncccc2F)n1 [Compound 911] | –
– | 28 | Cc1ccc2[nH]ncc2c1-c1nc(-c2ccc(Cl)nc2Nc2ncccc2C(F)F)nc(C(N)=O)c1N [Compound 944] | –
172 | – | Cc1cnc(Nc2cc(F)ccc2-c2nc(C(N)=O)c(N)c(-c3c(C)ccc4[nH]ncc34)n2)s1 [Compound 587] | –
150 | – | Cc1ccc2[nH]ncc2c1-c1nc(-c2cccnc2Nc2cccc(C#N)c2)nc(C(N)=O)c1N [Compound 630] | –
– | 2 | Cc1ccc2[nH]ncc2c1-c1nc(-c2ccncc2Nc2ncccc2F)nc(C(N)=O)c1N [Compound 938] | –
33 | – | Cc1ccc2[nH]ncc2c1-c1nc(-c2ncccc2NCC(F)(F)F)nc(C(N)=O)c1N [Compound 538] | –
– | 9 | Cc1ccc(-c2nc(C(N)=O)c(N)c(-c3c(C)ccc4[nH]ncc34)n2)c(Nc2nccc(Cl)n2)n1 [Compound 941] | –
38 | – | Cc1ccc(C)c(Nc2ncccc2-c2nc(C(N)=O)c(N)c(-c3c(C)ccc4[nH]ncc34)n2)n1 [Compound 707] | –
269 | – | Cc1cnc(Nc2cc(F)ccc2-c2nc(C(N)=O)c(N)c(-c3c(C)ccc4[nH]ncc34)n2)nc1 [Compound 523] | –
111 | – | COc1ccnc(Nc2cc(F)ccc2-c2nc(C(N)=O)c(N)c(-c3c(C)ccc4[nH]ncc34)n2)n1 [Compound 570] | –
